Key:
Format in all cases: cell-based
[1] = tested on: INCENP TSSph; test: Immunofluorescence microscopy and high content imaging of INCENP TSSph after acute kinase inhibition in nocodazole-arrested mitotic cells; settings: over 9 minutes; nocodazole-arrested mitotic HeLa cells, MG132 included
Text: (§1) To confirm that Cyclin B1-Cdk1 was a bona fide kinase for INCENP S446, the inventors first conducted in vitro kinase assays. Indeed, Cyclin B1-Cdk1 efficiently phosphorylated S446 on a recombinant INCENP fragment containing residues 369-583, but not the TSS motif (S893/S894) in recombinant INCENP residues 825-918. In contrast, Aurora B was able to phosphorylate its known target, the TSS motif of INCENP, but not S446 (FIG. 4B). Furthermore, INCENP immunoprecipitated from nocodazole-arrested mitotic cells was recognized by the INCENP S446ph antibody, and this phosphorylation was sensitive to the Cdk inhibitor Roscovitine (FIG. 14). However, determining the direct substrates of Cyclin B1-Cdk1 in cells is complicated because inhibition of Cdk1 prevents mitotic entry and/or forces mitotic exit, leading to indirect effects on multiple kinase substrates. […] Aurora B relocates to the spindle midzone at the end of mitosis so, as an additional way to focus on cells still in mitosis, the inventors analyzed only cells in which Aurora B remained on chromosomes. […] Also consistent with Cyclin B1-Cdk1 being the kinase responsible, INCENP S446ph was detected on chromosomes in mitotic cells from early mitosis until metaphase when Cyclin B1-Cdk is active, but was lost at anaphase when Cyclin B is degraded (FIG. 4D). […]

[2] = tested on: INCENP S446ph; test: Immunofluorescence microscopy and high content imaging of INCENP S446ph after acute kinase inhibition in nocodazole-arrested mitotic cells; settings: nocodazole-arrested mitotic HeLa cells, MG132 included
Text: as §1

[3] = tested on: INCENP S446ph; test: INCENP immunoprecipitation from nocodazole-arrested mitotic HeLa 1C8 cells and immunoblotting with INCENP S446ph antibody; settings: 100 μM, 2 h, with 20 μM MG132; nocodazole-arrested mitotic HeLa 1C8 cells; immunoblot
Description: HeLa 1C8 cells (Dai et al., 2005) were treated with 0.5 μg/ml nocodazole for 8 h. After collecting mitotic cells by “shake off” and replating, either 100 μM Roscovitine or DMSO (vehicle control) was added together with 20 μM MG132 in the continued presence of nocodazole. After 2 h, cell lysates were prepared in 50 mM Tris, 0.3 M NaCl, 0.5% Triton X-100, 10 mM MgCl2, 5 mM EDTA, 1 mM dithiothreitol, 1 mM PMSF, 0.1 μM okadaic acid, 10 mM NaF, 20 mM β-glycerophosphate, 0.25 U/μl benzonase nuclease, cOmplete™ Mini EDTA-free Protease Inhibitor and subjected to immunoprecipitation with rabbit anti-INCENP and Dynabeads Protein G (ThermoFisher). After washing, bound proteins were eluted by boiling in SDS-PAGE sample buffer.
SDS-PAGE was carried out using the NuPAGE Bis-Tris system (ThermoFisher). Proteins were transferred onto PVDF membranes using standard techniques. Membranes were blocked with 2.5% milk in PBS, 0.1% Tween20 for 1 h, then with primary antibodies in 2.5% milk, PBS, 0.1% Tween20 overnight at 4° C. After washing 3 times with PBS, 0.1% Tween20, they were incubated for 1 h with secondary antibodies in 2.5% milk, PBS, 0.1% Tween20, washed three times with PBS, 0.1% Tween20 and once with PBS, before development using ECL substrate (Pierce) and exposure to X-ray film. Stripping of immunoblots was carried out with Restore Western Blot Stripping Buffer (ThermoFisher).

In the case of `O=C1NC(=NCc2cccs2)S/C1=C\c1ccc2ncccc2c1` [RO-3306], the “effect on INCENP TSSph (Aurora B phosphorylation site)” value [1] is reported as “unaffected” and the “reduction in intensity of INCENP S446ph” value ([2]; over 9 minutes, only cells with Aurora B on chromosomes) is reported as 50%.
For `CC[C@H](CO)Nc1nc(NCc2ccccc2)c2ncn(C(C)C)c2n1` [Roscovitine], the “sensitivity of INCENP S446 phosphorylation to inhibitor” value [3] was “sensitive”.
With `COc1cc2c(Nc3ccc(NC(=O)c4ccccc4)cc3)ncnc2cc1OCCCN1CCOCC1` [ZM447439] the “effect on INCENP TSSph (Aurora B phosphorylation site)” value [1] was “rapid decline” and the “effect on INCENP S446ph” value ([2]; over the same time period (9 minutes)) was “did not influence”.

Source: US20220213524A1, “KINASE SCREENING ASSAYS” (University of Newcastle upon Tyne, priority 2019, published 2022)
